According to PMC3534865 (Bioorganic & medicinal chemistry letters, 2012):
Entries after “also recorded” stand apart in the source; their conditions may differ.

Legend:
[1] = target: T1, human M1 (hM1) (Homo sapiens, UniProt P11229); assay: hM1 PAM functional; type: cell-based; details: for efficacy (% AChmax) compared with ML137: at the highest concentration tested of 30 μM; for hM1 PAM activity: tested up to 30 μM; for pEC50: Table 2, hM1, mean ± SEM
T1 sequence (P11229 1-460): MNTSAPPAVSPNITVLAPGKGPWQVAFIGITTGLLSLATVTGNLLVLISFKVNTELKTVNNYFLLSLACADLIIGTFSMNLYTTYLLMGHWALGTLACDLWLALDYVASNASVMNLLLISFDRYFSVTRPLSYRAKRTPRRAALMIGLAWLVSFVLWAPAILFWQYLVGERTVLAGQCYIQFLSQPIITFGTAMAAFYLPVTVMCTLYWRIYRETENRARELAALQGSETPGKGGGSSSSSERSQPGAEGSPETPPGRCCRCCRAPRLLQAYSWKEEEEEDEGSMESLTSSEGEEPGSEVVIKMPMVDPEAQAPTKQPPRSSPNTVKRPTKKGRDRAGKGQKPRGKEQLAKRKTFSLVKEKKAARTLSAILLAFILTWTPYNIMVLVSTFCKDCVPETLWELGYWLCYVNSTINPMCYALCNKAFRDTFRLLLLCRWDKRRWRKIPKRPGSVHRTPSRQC

[2] = target: T2, hM1 (Homo sapiens, UniProt P11229); assay: ACh fold-shift experiment; type: cell-based; details: ML137 to 14
T2 sequence (P11229 1-460): T1 sequence (P11229 1-460)

[3] = test system: human muscarinic receptor subtypes; type: cell-based; details: hM1 over the other muscarinic receptor subtypes; Figure 4
[4] = Chemical stability observation; type: physicochemical; details: presumed air oxidation or self-condensation
[5] = target: T1, human M1 (hM1); details: cited from earlier work

Row | hM1 PAM activity [1] | Structure (SMILES) | further results
1 | complete loss of activity | CCCn1cc(-c2ccc(CN3C(=O)C(O)(C(F)(F)F)c4ccccc43)c(F)c2)cn1 (stereo not shown) [Compound 23k] | 
2 | complete loss of activity | CC(C)n1cc(-c2ccc(CN3C(=O)C(O)(C(F)(F)F)c4ccccc43)c(F)c2)cn1 (stereo not shown) [Compound 23l] | 
3 | complete loss of activity | O=C1N(Cc2ccc(-c3cn[nH]c3)cc2F)c2ccccc2C1(O)C(F)(F)F (stereo not shown) [Compound 23m] | 
4 | loss of all PAM activity | Cn1cc(-c2ccc(Cn3ccccc3=O)c(F)c2)cn1 [Compound 24d] | 
5 | no activity at all | Cn1cc(-c2ccc(CN3CCSc4ccccc43)c(F)c2)cn1 [Compound 24k] | 

The remaining lines, values behind:

Row | Structure (SMILES) | hM1 PAM activity [1] | further results
6 | Cn1cc(-c2ccc(CN3c4ccccc4CS3(=O)=O)c(F)c2)cn1 [Compound 13] |  | efficacy (% AChmax) compared with ML137 [1]: comparable efficacy
7 | Cn1cc(-c2ccc(CN3C(=O)Cc4ccccc43)c(F)c2)cn1 [Compound 14] |  | decrease in hM1 PAM EC50 (potency) relative to ML137 ([1]; ML137 to 14): 4 fold; efficacy (% AChmax) compared with ML137 [1]: comparable efficacy; improvement in ACh fold-shift relative to ML137 [2]: 10 fold; muscarinic receptor subtype selectivity [3]: little-to-no erosion of muscarinic subtype selectivity; also recorded: very selective for the hM1 receptor
8 | Cn1cc(-c2ccc(Cn3c(=O)[nH]c4ccccc43)c(F)c2)cn1 [Compound 15] | not tolerated | 
9 | Cn1cc(-c2ccc(CN3CCc4ccccc43)c(F)c2)cn1 [Compound 16] | not tolerated | 
10 | CC(=O)N(Cc1ccc(-c2cnn(C)c2)cc1F)c1ccccc1 [Compound 17] | inactive | 
11 | Cn1cc(-c2ccc(CN3C(=O)c4cccc5cccc3c45)c(F)c2)cn1 [Compound 18] | detrimental to activity | 
12 | Cn1cc(-c2ccc(CN3C(=O)C(N)c4ccccc43)c(F)c2)cn1 (stereo not shown) [Compound 23b] |  | increase in hM1 potency over 14 ([1]; ratio of EC50 vs 14): 2 fold; chemical stability [4]: undesirable level of chemical instability
13 | Cn1cc(-c2ccc(CN3C(=O)C(C)(N)c4ccccc43)c(F)c2)cn1 (stereo not shown) [Compound 23c] | weakly active | 
14 | CN(C)C1(C)C(=O)N(Cc2ccc(-c3cnn(C)c3)cc2)c2ccccc21 (stereo not shown) [Compound 23d] | weakly active | 
15 | Cn1cc(-c2ccc(CN3C(=O)C(C)(O)c4ccccc43)c(F)c2)cn1 (stereo not shown) [Compound 23e] |  | chemical stability [4]: stable
16 | Cn1cc(-c2ccc(CN3C(=O)COc4ccccc43)c(F)c2)cn1 [Compound 24e] |  | pEC50 [1]: 5.29 ± 0.09
17 | Cn1cc(-c2ccc(CN3C(=O)CSc4ccccc43)c(F)c2)cn1 [Compound 24h] |  | pEC50 [1]: 5.49 ± 0.12
18 | Cn1cc(-c2ccc(CN3C(=O)C(=O)c4ccccc43)c(F)c2)cn1 [ML137] |  | %AChmax previously reported [5]: 65%
